According to patent publication US20130202681A1 (priority 2012, published 2013):
Where two headings read alike, the source gives them in different places.

Columns and labels:
[1] = system: Mycobacterium tuberculosis; conditions: 10 millimolar
[2] = liver, water control = 0%
[3] = mouse, in vivo; cited from earlier work
[4] = in vivo; cited from earlier work

CC(=O)N[C@@H](CS)C(=O)O [NAC, N-acetyl cysteine]
CFU/ml reduced to [1]: 8,000 CFU/ml

N[C@@H](CCC(=O)N[C@@H](CS)C(=O)NCC(=O)O)C(=O)O [Plain glutathione, glutathione]
toxin removal ([2]; intravenous): 70% | toxin removal ([2]; oral): 10% | decrease of incidence or size of hepatic nodules or tumors [3]: no benefit | absorption after oral ingestion [4]: not absorbed
